Experimental data from US11458138B2 (Novartis AG, priority 2017, dated 2022).

Legend:
rabbit corneal surface = test: Rabbit model of limbal stem cell deficiency, transplantation of expanded LSCs; format: in vivo; details: LSCs expanded in medium comprising the compound, combined with GelMA, delivered via contact lens
Excerpt: FIG. 7B: Arrow is pointing to absence of keratin 19 staining. […] FIG. 7C: Arrow is pointing to absence of keratin-12 staining. […] FIG. 7D: Arrow is pointing to areas of positive keratin-19 staining.

[1] = test system: Phospho-YAP (Ser127) in JHH-5 cells; test: pYAP HTRF Assay (JHH-5 cells); format: cell-based; details: 2 hours
How it was run: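 Phospho-YAP read by HTRF (665 nm/620 nm ×10000) in lysates after overnight 18 h antibody incubation at room temperature. Compound treatment lasted 2 h at 37 °C, on JHH-5 cells plated 24 h earlier at 24000 per well in William's E medium with 10% FBS.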

limbal stem cells (LSCs) = test: Differentiation of expanded LSCs into corneal epithelium cells (p63alpha / keratin 12); format: cell-based, human; details: transferred to conditions that enable differentiation
Excerpt: Shown are views where the transition from the p63alpha-positive cell identity to the keratin-12 identity are occurring.
These characteristics can be observed by immunohistochemistry or FACS.

[2] = test system: Phospho-YAP (SER127) in HaCaT cells; test: pYAP HTRF Assay (HaCaT Cells); format: cell-based, human; details: Homo sapiens, 2 hours
How it was run: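 Phospho-YAP (Ser127) was measured by HTRF (665 nm/620 nm ratio) in HaCaT cells. Cells were grown 48 hours at 37° C at 5500 cells/well, exposed to compound for 2 hours, and incubated with detection reagents for 20 hrs at room temperature.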

[3] = biological target: Human LATS2 kinase domain protein (Homo sapiens (Human), UniProt Q9NRM7); test: LATS2 Biochemical Caliper Assay (Compound Examples 1-290); details: 400 micromolar ATP
Human LATS2 kinase domain protein, sequence (Q9NRM7 553-1088): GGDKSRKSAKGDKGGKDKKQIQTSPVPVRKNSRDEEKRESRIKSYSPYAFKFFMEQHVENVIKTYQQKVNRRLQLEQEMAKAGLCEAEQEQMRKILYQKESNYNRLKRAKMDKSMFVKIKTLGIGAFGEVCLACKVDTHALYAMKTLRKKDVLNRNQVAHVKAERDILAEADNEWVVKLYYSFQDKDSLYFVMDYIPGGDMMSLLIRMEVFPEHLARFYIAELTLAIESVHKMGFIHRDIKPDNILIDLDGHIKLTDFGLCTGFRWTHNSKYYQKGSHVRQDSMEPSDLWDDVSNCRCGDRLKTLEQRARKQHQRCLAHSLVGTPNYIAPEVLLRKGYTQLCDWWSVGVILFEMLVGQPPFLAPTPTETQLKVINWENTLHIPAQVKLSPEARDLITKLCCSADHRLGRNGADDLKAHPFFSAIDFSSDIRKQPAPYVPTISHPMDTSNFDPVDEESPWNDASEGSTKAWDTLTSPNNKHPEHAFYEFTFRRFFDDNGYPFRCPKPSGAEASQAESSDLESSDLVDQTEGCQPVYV
Human LATS2 kinase domain protein, sequence (Q7L9L4 whole entry partner, the tested form may be a part): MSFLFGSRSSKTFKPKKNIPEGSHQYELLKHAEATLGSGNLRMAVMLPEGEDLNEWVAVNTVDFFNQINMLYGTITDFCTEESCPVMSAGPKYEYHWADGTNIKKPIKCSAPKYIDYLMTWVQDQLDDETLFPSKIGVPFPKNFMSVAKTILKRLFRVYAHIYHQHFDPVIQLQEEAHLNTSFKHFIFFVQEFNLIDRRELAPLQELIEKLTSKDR
Description: Human LATS2 kinase domain protein was purchased from Carnabio (catalogue number 01-124), which harbors the catalytic domain of amino acids 553-1088, and was co-purified with human His-tagged MOBKL1A (NP_775-739). 5 microlitre of enzyme buffer, 100 nL of compounds and 5 microlitre of localising aid buffer were added into 384-well plates. […] The plates were incubated at 25° C. for 3 hours. 40 microlitre of stop buffer with 25 mM EDTA (NanoSyn) was added to each well to terminate the reaction. Localising aids and products were separated electrophoretically using the microfluidic-based Caliper Labchip 3000 Drug Discovery System (Caliper Life Sciences). Plates were read using blue laser excitation and green fluorescence detection and quantified by fluorescence intensity.

LATS1 = LATS1 (Homo sapiens (Human), UniProt O95835); test: LATS1 biochemical assay (Table 1A, Compound Examples 1-290; method in the earlier part)
LATS1, sequence (O95835 whole entry, looked up): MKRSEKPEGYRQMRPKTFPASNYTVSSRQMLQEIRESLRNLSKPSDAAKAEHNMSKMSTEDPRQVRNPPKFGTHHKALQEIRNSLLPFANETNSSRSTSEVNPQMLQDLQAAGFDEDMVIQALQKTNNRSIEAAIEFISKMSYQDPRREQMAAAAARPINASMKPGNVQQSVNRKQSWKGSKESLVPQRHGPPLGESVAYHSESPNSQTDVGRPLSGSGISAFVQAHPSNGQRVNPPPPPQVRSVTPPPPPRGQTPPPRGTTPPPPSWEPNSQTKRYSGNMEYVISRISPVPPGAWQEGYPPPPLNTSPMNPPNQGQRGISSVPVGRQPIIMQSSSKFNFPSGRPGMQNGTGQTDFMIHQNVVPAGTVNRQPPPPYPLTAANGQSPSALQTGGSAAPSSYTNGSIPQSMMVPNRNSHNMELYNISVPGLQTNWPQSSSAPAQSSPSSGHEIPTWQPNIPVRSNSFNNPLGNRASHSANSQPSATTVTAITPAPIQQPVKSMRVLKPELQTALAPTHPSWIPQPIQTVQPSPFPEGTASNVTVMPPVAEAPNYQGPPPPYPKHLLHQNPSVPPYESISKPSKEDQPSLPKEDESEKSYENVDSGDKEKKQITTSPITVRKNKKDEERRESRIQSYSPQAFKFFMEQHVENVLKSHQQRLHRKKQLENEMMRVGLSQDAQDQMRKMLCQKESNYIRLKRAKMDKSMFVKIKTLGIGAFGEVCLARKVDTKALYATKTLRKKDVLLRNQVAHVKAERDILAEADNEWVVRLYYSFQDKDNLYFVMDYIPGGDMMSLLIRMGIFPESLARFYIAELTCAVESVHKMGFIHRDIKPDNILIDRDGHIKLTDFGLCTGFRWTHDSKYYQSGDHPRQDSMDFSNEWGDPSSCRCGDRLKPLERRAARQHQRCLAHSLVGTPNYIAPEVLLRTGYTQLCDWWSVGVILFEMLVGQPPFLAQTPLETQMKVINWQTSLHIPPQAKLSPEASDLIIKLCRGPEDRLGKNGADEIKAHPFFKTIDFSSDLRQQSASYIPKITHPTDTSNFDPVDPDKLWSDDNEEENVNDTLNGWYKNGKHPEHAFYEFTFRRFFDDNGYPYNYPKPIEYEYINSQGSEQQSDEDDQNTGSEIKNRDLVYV
LATS1, sequence (Q7L9L4 whole entry partner, looked up): as the sequence (Q7L9L4 whole entry partner, the tested form may be a part) above

[4] = test system: YAP nuclear translocation in HaCaT cells; test: YAP Translocation Assay (HaCaT Cells); format: cell-based, human; details: Homo sapiens, 24 hours
How it was run: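 HaCaT cells (20,000/well) in DMEM + 10% FBS were plated overnight at 37° C, then exposed to compound for 24 h at 37° C. Cells were fixed with PFA, permeabilized with 0.1% Triton/1.5% BSA and imaged by high-content imaging.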

[5] = test system: hepatic progenitor cells (HPC); test: Mouse Hepatic Progenitor Cell Proliferation Assay; format: cell-based; details: 96 h, mean number of nuclei per organoid, 4 days
Description: The progenitor cells were isolated from C57Bl/6 wild type mice and expanded as described (Lu, W. Y. et al., Nat. Cell Biol. 17, 971-983 (2015)). Cells are stocked in liquid nitrogen, thawed on need and tested using the following protocol: HPC are harvested from their collagen I coated culture vessel (Corning; cat. Number 354487), counted and assessed for viability using a CEDEX cell counter (Roche). After centrifugation, 12 million cells are re-suspended in 2 ml of William's E Medium (Life Technologies; cat. Number 22551089) supplemented with 10% Fetal Bovine Serum (Amimed; cat. Number 2-01F10-I); 1% Penicillin/Streptomycin (Sigma; cat. Number 15140-122); 17.6 mM of NaHCO3 (Sigma; cat. Number S8761); 20 mM HEPES (Gibco; cat. Number H3375); 10 mM Nicotinamide (Sigma; cat. Number N0636-100); 14 mM glucose (Sigma; cat. Number G7021); 1 mM Sodium Pyruvate (Sigma; cat. Number TMS-005); Insulin Transferrin Selenium (ITS) diluted 100 times from stock solution (Sigma; cat. Number 13148); 100 nM Dexamethasone (Sigma; cat. Number D4902); 0.2 mM ascorbic acid (Sigma; cat. Number A7506-100G); 10 ng/ml recombinant human IL-6 (Preprotech; cat. Number 200-06); 10 ng/ml murine HGF (Preprotech; cat. Number 315-23; Lot. 0711S527); 10 ng/ml murine EGF (Preprotech; cat. Number 315-09; Lot. 0217179-1). Six milliliters of Matrigel (Corning; cat. Number 354277; Lot: 5187006) are added to the cell/media solution, thus the final cell concentration is 1.5 million HPC per milliliter, in 25% culture medium and 75% Matrigel. Five microliter (p1) of the cell/Matrigel suspension are transferred in each well of the clear bottom 96 well assay plate (Corning; cat. Number 356649) using the Star dispenser (Hamilton). […]
Plates are imaged with the CV7000 imager (Yokogawa) at a 10 fold magnification using the bright field lamp (lamp power: 10%; exposure time: 20 ms) and the 405 nanometer laser (laser power: 100%; exposure time 200 ms). Four different images per well were acquired and analyzed with the Yokogawa image analysis software (YAS). […]

[6] = biological target: Human LATS1 kinase domain protein (Homo sapiens (Human), UniProt O95835); test: LATS1 Biochemical Caliper Assay (Compound Examples 291-335); details: Caliper EZ Reader
Human LATS1 kinase domain protein, sequence (O95835 whole entry, looked up, the tested form may be a part): as the sequence (O95835 whole entry, looked up) above
Human LATS1 kinase domain protein, sequence (Q7L9L4 whole entry partner, looked up, the tested form may be a part): as the sequence (Q7L9L4 whole entry partner, the tested form may be a part) above
Description: The LATS1 biochemical Caliper assay was performed as following.
Human LATS1 kinase domain protein was purchased from Carnabio (catalogue number 01-123; lot 15CBS-0098D). Human LATS1, catalytic domain [589-1130(end) amino acids of accession number NP_004681.1] was co-expressed as N-terminal GST-fusion protein (90 kDa) with human His-tagged MOBKL1A [1-216(end) amino acids of accession number NP_775739.1] using baculovirus expression system. GST-LATS1 was purified by using glutathione sepharose chromatography. The substrate (Fluo-SGKtide; Peptide for LATS1; lot BS-41067) has the following sequence: 5-Fluo-Nva-[…]-amide (SEQ ID NO: 27) x TFA and was purchased from Biosyntan.
The reaction is performed in reaction buffer containing 50 mM Hepes pH 7,5; 0.02% Tween20; 0.02% BSA; 1 mM DTT; 10 uM Na3VO4 and 10 mM beta-Glycerolphosphat and fresh added 1 mM MgCl2 and qsp H2O.
The substrate solution (2× conc.) in Reaction Buffer contains 300 μM ATP and 4 μM Fluo-SGKtide.
The kinase solution (2× conc.) in Reaction Buffer contains 20 nM LATS1 kinase. 4.5 μL of 2× conc. Kinase solution, 50 nL of 1.8 mM compounds and 4.5 μL of substrate solution were added into 384-well plates black small volume from Greiner and incubated at 32° C. for 1 hour. 15 μL of stop buffer containing 100 mM Hepes pH 7,5; 5% DMSO; 0.1% Coating reagent; 10 mM EDTA and 0.02% Brij35 and qsp H2O to each well to terminate the reaction.
Substrates and products were electrophoretically separated using the microfluidic-based Caliper EZ Reader System (Caliper Life Sciences) using a 12 sipper chip (cat 760404). The separation takes place in Coating Buffer (idem Stop buffer) and containing 0.1% Coating reagent CR3 and 0.5% coating reagent CR8 (Perkin Elmer).
Plates were read using a LED with an excitation at 488 nm and a detection at 520 nm to 5 quantify the fluorescence intensity.

| IC50 [1] [nM] | IC50 [6] [nM] | Compound | conjunctivalization (keratin-19) in transplanted eye (rabbit corneal surface) | corneal epithelium regeneration (keratin-12) in transplanted eye (rabbit corneal surface) | differentiation of expanded LSCs into corneal epithelium cells (keratin 12) (limbal stem cells (LSCs)) | IC50 [2] [nM] | IC50 [3] [nM] | IC50 (LATS1) [nM] | EC50 [4] [nM] | EC50 [5] [nM] |
| --- | --- | --- | --- | --- | --- | --- | --- | --- | --- | --- |
| – | – | C[C@H](N(C)c1nc(-c2ccncc2)nc2cnccc12)C(F)(F)F [Example 48a, N-methyl-2-(pyridin-4-yl)-N-[(2S)-1,1,1-trifluoropropan-2-yl]pyrido[3,4-d]pyrimidin-4-amine] | – | – | – | – | – | – | – | 260 |
| 600 | – | CC(C)(Nc1nc(-c2ccncc2)nc2cnccc12)C(F)(F)F [Example 58, 2-(pyridin-4-yl)-N-(1,1,1-trifluoro-2-methylpropan-2-yl)pyrido[3,4-d]pyrimidin-4-amine] | – | – | – | 185 | 170 | 1 | 302 | 840 |
| > 10000 | 10.2 | CC1CNCCN1c1cc(-c2ccncc2)nc2cnccc12 (stereo not drawn) [Example 303, 4-(2-methylpiperazin-1-yl)-2-(pyridin-4-yl)-1,7-naphthyridine] | – | – | – | – | – | – | – | > 20000 |

| Compound | IC50 [1] [nM] | IC50 [6] [nM] | conjunctivalization (keratin-19) in transplanted eye (rabbit corneal surface) | corneal epithelium regeneration (keratin-12) in transplanted eye (rabbit corneal surface) | differentiation of expanded LSCs into corneal epithelium cells (keratin 12) (limbal stem cells (LSCs)) | IC50 [2] [nM] | IC50 [3] [nM] | IC50 (LATS1) [nM] | EC50 [4] [nM] | EC50 [5] [nM] |
| --- | --- | --- | --- | --- | --- | --- | --- | --- | --- | --- |
| CC(C)(O)COCC(C)(C)Nc1nc(-c2ccncc2)nc2cnccc12 [Example 12, 2-methyl-1-(2-methyl-2-{[2-(pyridin-4-yl)pyrido[3,4-d]pyrimidin-4-yl]amino}propoxy)propan-2-ol] | 2900 | – | prevented conjunctivalization by keratin-19-positive conjunctival cells | lead to regeneration of a keratin-12-positive corneal epithelium | can differentiate into corneal epithelium cells | 1150 | 15 | 4 | 1750 | – |
